Experimental data taken from patent US12390441B2, “Immunomodulating o-het/aryl azalides” (Zoetis Services LLC, priority 2020, dated 2025).
Marks after values point to notes of the source that are not given here.

Test system: BRD pathogens, M. haemolytica and P. multocida
Assay: In-vitro MIC model, BRD pathogen screening panel
Assay type: cell-based, Mannheimia haemolytica; Pasteurella multocida
Conditions: at least one BRD strain

Row | SMILES | MIC flag at the example number (Table E)
1 | CCCNC[C@]1(O)[C@H](C)O[C@@H](O[C@H]2[C@H](C)[C@@H](O[C@@H]3O[C@H](C)C[C@H](NC)[C@H]3Oc3ccc(F)cc3F)[C@](C)(O)C[C@@H](C)CN[C@H](C)[C@@H](O)[C@](C)(O)[C@@H](CC)OC(=O)[C@@H]2C)C[C@@]1(C)OC [Example E-58] | E-58* (MIC ≤ 64 μg/mL for at least one BRD strain)
2 | CCCNC[C@]1(O)[C@H](C)O[C@@H](O[C@H]2[C@H](C)[C@@H](O[C@@H]3O[C@H](C)C[C@H](NC)[C@H]3Oc3cccnc3OCC)[C@](C)(O)C[C@@H](C)CN[C@H](C)[C@@H](O)[C@](C)(O)[C@@H](CC)OC(=O)[C@@H]2C)C[C@@]1(C)OC [Example E-59] | E-59* (MIC ≤ 64 μg/mL for at least one BRD strain)
3 | CCCNC[C@]1(O)[C@H](C)O[C@@H](O[C@H]2[C@H](C)[C@@H](O[C@@H]3O[C@H](C)C[C@H](NC)[C@H]3Oc3cccc4cc[nH]c34)[C@](C)(O)C[C@@H](C)CN[C@H](C)[C@@H](O)[C@](C)(O)[C@@H](CC)OC(=O)[C@@H]2C)C[C@@]1(C)OC [Example E-65] | E-65* (MIC ≤ 64 μg/mL for at least one BRD strain)
4 | CCCNC[C@]1(O)[C@H](C)O[C@@H](O[C@H]2[C@H](C)[C@@H](O[C@@H]3O[C@H](C)C[C@H](NC)[C@H]3Oc3ccccc3S(C)(=O)=O)[C@](C)(O)C[C@@H](C)CN[C@H](C)[C@@H](O)[C@](C)(O)[C@@H](CC)OC(=O)[C@@H]2C)C[C@@]1(C)OC [Example E-66] | E-66* (MIC ≤ 64 μg/mL for at least one BRD strain)
5 | CCCNC[C@]1(O)[C@H](C)O[C@@H](O[C@H]2[C@H](C)[C@@H](O[C@@H]3O[C@H](C)C[C@H](N(C)C)[C@H]3Oc3cncc(C(F)(F)F)c3)[C@](C)(O)C[C@@H](C)CN[C@H](C)[C@@H](O)[C@](C)(O)[C@@H](CC)OC(=O)[C@@H]2C)C[C@@]1(C)OC [Example E-70] | E-70* (MIC ≤ 64 μg/mL for at least one BRD strain)
6 | CCCNC[C@]1(O)[C@H](C)O[C@@H](O[C@H]2[C@H](C)[C@@H](O[C@@H]3O[C@H](C)C[C@H](NC)[C@H]3Oc3ccc(OC)c(OC)c3)[C@](C)(O)C[C@@H](C)CN[C@H](C)[C@@H](O)[C@](C)(O)[C@@H](CC)OC(=O)[C@@H]2C)C[C@@]1(C)OC [Example E-74] | E-74* (MIC ≤ 64 μg/mL for at least one BRD strain)
7 | CCCNC[C@]1(O)[C@H](C)O[C@@H](O[C@H]2[C@H](C)[C@@H](O[C@@H]3O[C@H](C)C[C@H](NC)[C@H]3Oc3ccc(-n4cccc4)cc3)[C@](C)(O)C[C@@H](C)CN[C@H](C)[C@@H](O)[C@](C)(O)[C@@H](CC)OC(=O)[C@@H]2C)C[C@@]1(C)OC [Example E-82] | E-82* (MIC ≤ 64 μg/mL for at least one BRD strain)
8 | CCCNC[C@]1(O)[C@H](C)O[C@@H](O[C@H]2[C@H](C)[C@@H](O[C@@H]3O[C@H](C)C[C@H](N(C)C)[C@H]3Oc3ccccc3Cl)[C@](C)(O)C[C@@H](C)CN[C@H](C)[C@@H](O)[C@](C)(O)[C@@H](CC)OC(=O)[C@@H]2C)C[C@@]1(C)OC [Example E-83] | E-83* (MIC ≤ 64 μg/mL for at least one BRD strain)
9 | CCCNC[C@]1(O)[C@H](C)O[C@@H](O[C@H]2[C@H](C)[C@@H](O[C@@H]3O[C@H](C)C[C@H](N(C)C)[C@H]3Oc3ccc4ccncc4c3)[C@](C)(O)C[C@@H](C)CN[C@H](C)[C@@H](O)[C@](C)(O)[C@@H](CC)OC(=O)[C@@H]2C)C[C@@]1(C)OC [Example E-85] | E-85* (MIC ≤ 64 μg/mL for at least one BRD strain)
10 | CCCNC[C@]1(O)[C@H](C)O[C@@H](O[C@H]2[C@H](C)[C@@H](O[C@@H]3O[C@H](C)C[C@H](N(C)C)[C@H]3Oc3ccc(OC)c(OCC)c3)[C@](C)(O)C[C@@H](C)CN[C@H](C)[C@@H](O)[C@](C)(O)[C@@H](CC)OC(=O)[C@@H]2C)C[C@@]1(C)OC [Example E-88] | E-88* (MIC ≤ 64 μg/mL for at least one BRD strain)
